From patent US7198775B2, “Detectably labeled porphyrin compound for identifying the sentinel lymph node” (The Trustees of Columbia University in the City of New York, priority 2000, dated 2007)

Legend:
lymph nodes = test: dye tested on rabbits for staining of the lymph nodes; assay type: in vivo
Excerpt: The present invention in one embodiment therefore acts as a dye that stains the lymphatic channels of the body for identification of the sentinel lymph node.

[1] = rats bearing tumors; cited from earlier work

Substance | staining of the lymph nodes (lymph nodes) | in vivo stability of the complex [1] | tissue distribution (accumulation of most of the product) [1] | tumor uptake [1]
Tc-99m Phthalocyanine Tetrasulfonate [Tc-99m-PCTS] | successfully shown to stain the lymph nodes |  |  | 
^99Tc-labeled-tetrasulfophtalocyanine [[^99Tc] TSPC] |  | absence of ^99Tc accumulation in the thyroid and the stomach | accumulated in the liver, kidneys, ovaries, and uterus | occurred mainly in the exterior cell layers
